In patent US20230295118A1 (EnhancedBio Inc., priority 2022, published 2023):

What was measured:
Format in all cases: cell-based
[1] = tested on: mantle cell lymphoma cell (Mino or JeKo-1); assay: Antiproliferative effect, MTS cell viability assay; conditions: 72 h; for IC50: mantle cell lymphoma cell (Mino or JeKo-1), MTS assay, read-out: IC50 (anti-proliferation); for inhibition of cell proliferation of Mino cells: 0-1 μM, result in words
Procedure, shortened: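 MTS read-out (formazan absorbance at 490 nm) after 72 h exposure of Mino cells to 0–1 μM compound (0.0001, 0.001, 0.01, 0.1, 1 μM). Palbociclib and abemaciclib served as positive controls.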

CDK4 = molecular target: T1, CDK4 (Homo sapiens, UniProt P11802); assay: CDK4 degradation (DC50, Dmax)
T1 construct: endogenous in cells

CDK6 = molecular target: T2, CDK6 (Homo sapiens, UniProt Q00534); assay: CDK6 degradation (DC50, Dmax)
T2 construct: endogenous in cells
T2 sequence (Q00534 whole entry): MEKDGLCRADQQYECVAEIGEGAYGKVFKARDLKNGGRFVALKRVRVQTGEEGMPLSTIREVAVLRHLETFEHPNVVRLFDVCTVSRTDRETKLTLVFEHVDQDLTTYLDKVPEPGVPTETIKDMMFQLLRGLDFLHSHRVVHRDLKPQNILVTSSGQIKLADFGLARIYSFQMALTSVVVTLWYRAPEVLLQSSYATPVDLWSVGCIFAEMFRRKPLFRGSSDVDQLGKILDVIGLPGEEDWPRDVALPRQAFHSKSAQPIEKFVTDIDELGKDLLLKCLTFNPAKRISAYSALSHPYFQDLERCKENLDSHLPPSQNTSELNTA

T1 sequence (P11802 whole entry): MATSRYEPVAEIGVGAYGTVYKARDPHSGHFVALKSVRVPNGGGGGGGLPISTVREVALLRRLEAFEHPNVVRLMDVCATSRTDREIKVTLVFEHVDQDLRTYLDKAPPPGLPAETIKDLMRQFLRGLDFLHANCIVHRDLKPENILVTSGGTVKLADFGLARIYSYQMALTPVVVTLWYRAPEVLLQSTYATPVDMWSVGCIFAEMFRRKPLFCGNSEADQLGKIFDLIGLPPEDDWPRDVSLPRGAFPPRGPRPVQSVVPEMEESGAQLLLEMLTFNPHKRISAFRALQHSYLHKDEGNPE

| SMILES | IC50 [1] [nM] | DC50 (CDK4) [nM] | Dmax (CDK4) [%] | DC50 (CDK6) [nM] | Dmax (CDK6) [%] | inhibition of cell proliferation of Mino cells [1] |
| --- | --- | --- | --- | --- | --- | --- |
| Cc1nc2c(F)cc(-c3nc(Nc4ccc(CC5CCN(C6CN(c7ccc8c(c7)C(=O)N(C7CCC(=O)NC7=O)C8=O)C6)CC5)cn4)ncc3F)cc2n1C(C)C (centres unmarked) [Compound 148, 2-(2,6-dioxopiperidin-3-yl)-5-(3-(4-((6-((5-fluoro-4-(4-fluoro-1-isopropyl-2-methyl-1H-benzo[d]imidazol-6-yl)pyrimidin-2-yl)amino)pyridin-3-yl)methyl)piperidin-1-yl)azetidin-1-yl)isoindoline-1,3-dione] | 50 to 200 | < 50 | > 60 | 50 to 200 | > 60 |  |
| CC(=O)c1c(C)c2cnc(Nc3ccc(N4CCN(C5CCN(C(=O)Nc6ccc7c(c6)CN(C6CCC(=O)NC6=O)C7=O)CC5)CC4)cn3)nc2n(C2CCCC2)c1=O (centres unmarked) [Compound 40, 4-(4-(6-((6-acetyl-8-cyclopentyl-5-methyl-7-oxo-7,8-dibydropyrido[2,3-d]pyrimidin-2-yl)amino)pyridin-3-yl)piperazin-1-yl)-N-(2-(2,6-dioxopiperidin-3-yl)-1-oxoisoindolin-5-yl)piperidine-1-carboxamide] | < 50 | 50 to 200 | > 60 | 50 to 200 | > 80 |  |
| CC(=O)c1c(C)c2cnc(Nc3ccc(N4CCN(CC5CN(c6ccc7c(c6)CN(C6CCC(=O)NC6=O)C7=O)C5)CC4)cn3)nc2n(C2CCCC2)c1=O (centres unmarked) [Compound 118, 3-(5-(3-((4-(6-((6-acetyl-8-cyclopentyl-5-methyl-7-oxo-7,8-dihydropyrido[2,3-d]pyrimidin-2-yl)amino)pyridin-3-yl)piperazin-1-yl)methyl)azetidio-1-yl)-1-oxoisoindolin-2-yl)piperidine-2,6-dione] | < 50 | < 50 | > 80 | < 50 | > 80 |  |
| CC(=O)c1c(C)c2cnc(Nc3ccc(C4CCN(CC5CN(c6ccc7c(c6)C(=O)N(C6CCC(=O)NC6=O)C7=O)C5)CC4)cn3)nc2n(C2CCCC2)c1=O (centres unmarked) [Compound 125, 5-(3-((4-(6-((6-acetyl-8-cyclopentyl-5-methyl-7-oxo-7,8-dihydropyrido[2,3-d]pyrimidin-2-yl)amino)pyridin-3-yl)piperidin-1-yl)methyl)azetidin-1-yl)-2-(2,6-dioxopiperidin-3-yl)isoindoline-1,3-dione] | < 50 | < 50 | > 80 | < 50 | > 80 |  |
| CC(=O)c1c(C)c2cnc(Nc3ccc(N4CCN(C(=O)C5CCN(c6ccc(C(=O)NC7CCC(=O)NC7=O)cc6)CC5)CC4)cn3)nc2n(C2CCCC2)c1=O (centres unmarked) [Compound 116, 4-(4-(4-(6-((6-acetyl-8-cyclopentyl-5-methyl-7-oxo-7,8-dihydropyrido[2,3-d]pyrimidin-2-yl)amino)pyridin-3-yl)piperazine-1-carbonyl)piperidin-1-yl)-N-(2,6-dioxopiperidin-3-yl)benzamide] | 50 to 200 | 50 to 200 | > 80 | 50 to 200 | > 80 |  |
| CC(=O)c1c(C)c2cnc(Nc3ccc(N4CCN(C(=O)N5CCC(CN6CCC(c7ccc8c(c7)C(=O)N(C7CCC(=O)NC7=O)C8=O)CC6)CC5)CC4)cn3)nc2n(C2CCCC2)c1=O (centres unmarked) [Compound 17, 5-(1-((1-(4-(6-((6-acetyl-8-cyclopentyl-5-methyl-7-oxo-7,8-dihydropyrido[2,3-d]pyrimidin-2-yl)amino)pyridin-3-yl)piperazine-1-carbonyl)piperidin-4-yl)methyl)piperidin-4-yl)-2-(2,6-dioxopiperidin-3-yl)isoindoline-1,3-dione] | 50 to 200 | 50 to 200 | > 50 | 50 to 200 | > 50 |  |
| CC(=O)c1c(C)c2cnc(Nc3ccc(N4CCN(CC5CN(c6cccc7c6C(=O)N(C6CCC(=O)NC6=O)C7=O)C5)CC4)cn3)nc2n(C2CCCC2)c1=O (centres unmarked) [Compound 81, 4-(3-((4-(6-((6-acetyl-8-cyclopentyl-5-methyl-7-oxo-7,8-dihydropyrido[2,3-d]pyrimidin-2-yl)amino)pyridin-3-yl)piperazin-1-yl)methyl)azetidin-1-yl)-2-(2,6-dioxopiperidin-3-yl) isoindoline-1,3-dione] | < 50 | 50 to 200 | > 80 | 50 to 200 | > 80 |  |
| Cc1nc2c(F)cc(-c3nc(Nc4ccc(CN5CCN(C6CCN(c7ccc8c(c7)CN(C7CCC(=O)NC7=O)C8=O)CC6)CC5)cn4)ncc3F)cc2n1C(C)C (centres unmarked) [Compound 166, 3-(5-(4-(4-((6-((5-fluoro-4-(4-fluoro-1-isopropyl-2-methyl-1H-benzo[d]imidazol-6-yl)pyrimidin-2-yl)amino)pyridin-3-yl)methyl)piperazin-1-yl)piperidin-1-yl)-1-oxoisoindolin-2-yl)piperidine-2,6-dione] | < 50 | 50 to 200 | > 80 | 50 to 200 | > 60 |  |
| CC(=O)c1c(C)c2cnc(Nc3ccc(N4CCN(C5CCN(c6ccc7c(c6)C(=O)N(C6CCC(=O)NC6=O)C7=O)CC5)CC4)cn3)nc2n(C2CCCC2)c1=O (centres unmarked) [Compound 63, 5-(4-(4-(6-((6-acetyl-8-cyclopentyl-5-methyl-7-oxo-7,8-dihydropyrido[2,3-d]pyrimidin-2-yl)amino)pyridin-3-yl)piperazin-1-yl)piperidin-1-yl)-2-(2,6-dioxopiperidin-3-yl)isoindoline-1,3-dione] | < 50 | 50 to 200 | > 80 | < 50 | > 80 | dose-dependent inhibition of cell proliferation |
| CC(=O)c1c(C)c2cnc(Nc3ccc(N4CCN(C(=O)N5CCC(CCN6CCN(c7ccc8c(c7)CN(C7CCC(=O)NC7=O)C8=O)CC6)CC5)CC4)cn3)nc2n(C2CCCC2)c1=O (centres unmarked) [Compound 20, 3-(5-(4-(2-(1-(4-(6-((6-acetyl-8-cyclopentyl-5-methyl-7-oxo-7,8-dihydropyrido[2,3-d]pyrimidin-2-yl)amino)pyridin-3-yl)piperazine-1-carbonyl)piperidin-4-yl)ethyl)piperazin-1-yl)-1-oxoisoindolin-2-yl)piperidine-2,6-dione] | 50 to 200 | 50 to 200 | > 60 | 50 to 200 | > 60 |  |
| CC(=O)c1c(C)c2cnc(Nc3ccc(N4CCN(C5CCN(c6ccc7c(c6)CN(C6CCC(=O)NC6=O)C7=O)CC5)CC4)cn3)nc2n(C2CCCC2)c1=O (centres unmarked) [Compound 64, 3-(5-(4-(4-(6-((6-acetyl-8-cyclopentyl-5-methyl-7-oxo-7,8-dihydropyrido[2,3-d]pyrimidin-2-yl)amino)pyridin-3-yl)piperazin-1-yl)piperidin-1-yl)-1-oxoisoindolin-2-yl)piperidine-2,6-dione] | < 50 | 50 to 200 | > 80 | 50 to 200 | > 80 |  |
| CC(=O)c1c(C)c2cnc(Nc3ccc(N4CCN(CC5CCN(C(=O)N6CCC(N7CCN(c8ccc9c(c8)C(=O)N(C8CCC(=O)NC8=O)C9=O)CC7)CC6)CC5)CC4)cn3)nc2n(C2CCCC2)c1=O (centres unmarked) [Compound 89, 5-(4-(1-(4-((4-(6-((6-acetyl-8-cyclopentyl-5-methyl-7-oxo-7,8-dihydropyrido[2,3-d]pyrimidin-2-yl)amino)pyridin-3-yl)piperazin-1-yl)methyl)piperidine-1-carbonyl)piperidin-4-yl)piperazin-1-yl)-2-(2,6-dioxopiperidin-3-yl)isoindoline-1,3-dione] | 50 to 200 | 50 to 200 | > 60 | > 200 | > 60 |  |
| CC(=O)c1c(C)c2cnc(Nc3ccc(C4CCN(C(=O)C5CN(c6ccc7c(c6)C(=O)N(C6CCC(=O)NC6=O)C7=O)C5)CC4)cn3)nc2n(C2CCCC2)c1=O (centres unmarked) [Compound 129, 5-(3-(4-(6-((6-acetyl-8-cyclopentyl-5-methyl-7-oxo-7,8-dihydropyrido[2,3-d]pyrimidin-2-yl)amino)pyridin-3-yl)piperidine-1-carbonyl)azetidin-1-yl)-2-(2,6-dioxopiperidin-3-yl)isoindoline-1,3-dione] | 50 to 200 | 50 to 200 | > 80 | 50 to 200 | > 80 |  |
| CN(C)C(=O)c1cc2cnc(Nc3ccc(N4CCN(CCCNc5ccc6c(c5)CN(C5CCC(=O)NC5=O)C6=O)CC4)cn3)nc2n1C1CCCC1 (centres unmarked) [Compound 76, 7-cyclopentyl-2-((5-(4-(3-((2-(2,6-dioxopiperidin-3-yl)-1-oxoisoindolin-5-yl)amino)propyl)piperazin-1-yl)pyridin-2-yl)amino)-N,N-dimethyl-7H-pyrrolo[2,3-d]pyrimidine-6-carboxamide] | < 50 | < 50 | > 80 | < 50 | > 80 | dose-dependent inhibition of cell proliferation |
| CC(=O)c1c(C)c2cnc(Nc3ccc(N4CCN(C(=O)N5CCC(N6CCN(c7ccc8c(c7)CN(C7CCC(=O)NC7=O)C8=O)CC6)CC5)CC4)cn3)nc2n(C2CCCC2)c1=O (centres unmarked) [Compound 4, 3-(5-(4-(1-(4-(6-((6-acetyl-8-cyclopentyl-5-methyl-7-oxo-7,8-dihydropyrido[2,3-d]pyrimidin-2-yl)amino)pyridin-3-yl)piperazine-1-carbonyl)piperidin-4-yl)piperazin-1-yl)-1-oxoisoindolin-2-yl)piperidine-2,6-dione] | 50 to 200 | > 200 | > 50 | > 200 | > 50 |  |
